Laboratory results: patent US11116212B2, “Carbonyl containing compounds for controlling and repelling Cimicidae populations” (SemiosBio Technologies Inc., priority 2011, dated 2021)
Where a name gives a salt, the structure may show the parent alone. Read-outs that look alike come from different tables or passages of the source. Marks after values point to notes of the source that are not given here.

Columns and labels:
Assay type in all cases: in vivo
[1] = tested on: bed bugs, Cimex lectularius; test: Bed bug repellency bioassay, glass tube olfactometer arena; details: for pest or weed control at 25 % strength / pest or weed control at 5 % strength / pest or weed control at 1 %: Cimex lectularius; for % R (Overall Average): Example 2, single compound at 5% (w/w); for pest or weed control at 5 % strength: 50 uL, 5% w/v in hexane; for % Repellency, At least One Average >50%: best average over 3 replicates for a single time period
Description: (§1) Per individual bioassay, 10 adult or late instar nymph bed bugs, Cimex lectularius, of mixed sex. Bed bugs sourced from wild, field populations and tested within 2 weeks of capture. Subjects were tested one time, only.
(ii) Olfactometer consisting of a glass tube. Tube ends were plugged to prevent egress of test subjects. Test substrates were placed at opposite ends of the tube. Tube Olfactometer includes a port in the centre for introduction of test subjects. Dimensions of the tube were 15.2 mm in diameter by 304.8 mm long.
Compounds were either purchased from commercial sources or synthesized using conventional synthetic organic chemistry techniques (see, for example, Examples 5 to 7). Some compounds (014, 058 and 080) were tested in duplicate (one version from commercial sources and one synthesized) and the best performance is reported in the Tables below. Of the tested compounds reported in the Tables below, the following compounds were synthesized: 006, 010, 017, 018, 040, 041 to 043, 045, 046, 048, 049, 058, 067 to 075, 079, 080 to 082, 089 and 090.
Test compounds consisted of a control and treatment. The treatment consisted of a test compound mixed as a percentage w/w in a suitable solvent. The test compound solvent itself was used as a control. Solvents used were hexane, hexane:methanol, or dichloromethane:methanol.
(i) Gauze cut to a standard size and folded upon itself to provide harbourage for test subjects.
(iii) Absorbent polymer “aroma” beads that were given sufficient time to fully absorb test compounds and control solvents.
In the case of gauze and filter paper substrates, control solvents and test mixtures of known concentrations and volumes were dispensed directly onto substrates using a pipette. For polymer beads, beads were mixed w/w with solvent or test compound in a small glass jar. The jars were occasionally agitated to facilitate soaking of the beads.
(§2) Immediately after the substrates were infused with test compounds and control solvents, test subjects were introduced to the centre of the selected observation arena. […] Only subjects that were in close contact with the treatment or control substrates were recorded. Subjects elsewhere in the arena were not included in repellency calculations. Percentage repellency was calculated based on a modification of Abbott's formula to account for negative repellency (attraction). Specifically: IF(C>=T,(C−T)/C*100,(T−C)/T*−100)
(§3) where C is number of test subjects in contact with control substrate and T is number of test subjects in contact with treatment substrate.
All average repellency results reported in the table are based on 3 replicates for each reported trial, with each trial involving at least 3 observation periods. The observation periods were short-term (30 min), medium-term (1-2 hours), and long-term (24-48 hours). The “overall average” reported in the table represents the average for 3 replicates for 3 observation periods. […]
To determine whether compounds could be combined in the repellent compositions, compounds 14 and 35 were each tested at a concentration of 5% (w/w), and as a combination comprising each compound at a concentration of 2.5% (w/w). The formulations were tested as described in Example 1 using the olfactometer configuration.

[2] = tested on: bed bugs, Cimex lectularius; test: Bed bug repellency bioassay, box arena (formulations of compound 35)
Description: as §1
(iii) Box arenas consisted of covered plastic “Rubbermaid” box where the cover was modified to fit a mesh screen to allow movement of air between the test arena interior and outside. Test substrates were placed at opposite ends of the box arena. Dimensions of the box were 304.8 mm long by 200 mm wide by 80 mm in depth.
as §2, §3
Compound 35 was formulated as a spray formulation in which the compound was dissolved in isopropyl alcohol (IPA) at concentrations of 1%, 2.5% and 5%.
In addition, compound 35 was tested on plastic slow-release beads. The beads were cured with either: 1) 20% (w/w) neat compound 35, or 2) 20% (w/w) of a 1:1 mixture of compound 35 and wintergreen oil (methyl salicylate).
The formulations were tested as described in Example 1 using the box configuration.

[3] = tested on: bed bugs, Cimex lectularius; test: Bed bug repellency bioassay, Petri dish arena; details: filter paper, 100 uL, 1% v/v in hexane, average of 3 replicates x 3 observation periods
Description: (i) Petri Dish arenas consisted of a standard plastic, covered Petri Dish where test substrates were placed at opposite sides of the dish. Dimensions of the dish were 101.6 mm in diameter by 25.4 mm in depth.
(ii) Filter paper of standard size and folded as per (i).
In the case of gauze and filter paper substrates, control solvents and test mixtures of known concentrations and volumes were dispensed directly onto substrates using a pipette. […]
Immediately after the substrates were infused with test compounds and control solvents, test subjects were introduced to the centre of the selected observation arena. […] Only subjects that were in close contact with the treatment or control substrates were recorded. […] Percentage repellency was calculated based on a modification of Abbott's formula to account for negative repellency (attraction). […]

[4] = beads, 20 uL, 25% w/w in hexane, average of 3 replicates x 3 observation periods, read-out: % Repellency (% R), Overall Average
[5] = gauze, average of 3 replicates x 3 observation periods, read-out: % Repellency (% R), Overall Average
[6] = gauze, 10 uL, 1% v/v in hexane, average of 3 replicates x 3 observation periods, read-out: % Repellency (% R), Overall Average
[7] = gauze, 10 uL, 1% v/v in hexane, best single observation (one repetition, one time), read-out: % Repellency, At least One Time >50%
[8] = observation period T1, gauze, 10 uL, 1% v/v in hexane, read-out: % Repellency T1 (average of 3 repetitions)
[9] = observation period T2, gauze, 10 uL, 1% v/v in hexane, read-out: % Repellency T2 (average of 3 repetitions)
[10] = observation period T3, gauze, 10 uL, 1% v/v in hexane, read-out: % Repellency T3 (average of 3 repetitions)

SMILES: CCC(=O)OCc1ccco1 [Compound 035, Furfuryl propionate]
- pest or weed control at 25 % strength [1, 4]: > 80%
- % R (Overall Average) [1]: 95%
- % R (Overall Average) ([2]; IPA spray, 1% (w/w) compound 35 in isopropyl alcohol): 92%
- % R (Overall Average) ([2]; IPA spray, 2.5% (w/w) compound 35 in isopropyl alcohol): 94%
- % R (Overall Average) ([2]; IPA spray, 5% (w/w) compound 35 in isopropyl alcohol): 100%
- repellency of formulations (in words) ([2]; both formulation formats (IPA spray, plastic beads), all concentrations tested): excellent repellency
- % R (Overall Average) ([2]; plastic slow-release beads cured with 20% (w/w) neat compound 35): 100%
- % R (Overall Average) ([2]; plastic slow-release beads, 10% compound 35 + 10% wintergreen oil (methyl salicylate)): 100%

SMILES: CCOC(=O)CCC(=O)O [Compound 055, Mono-ethyl succinate]
- % Repellency (% R), Overall Average [3]: 73%

SMILES: CCC(=O)/C(C)=C/c1ccco1 [Compound 048, (E)-1-(furan-2-yl)-2-methylpent-1-en-3-one]
- pest or weed control at 5 % strength [1, 5]: > 80%

SMILES: C=COC(=O)CC [Compound 031, Vinyl propionate]
- pest or weed control at 5 % strength [1, 5]: 8%
- pest or weed control at 5 % strength ([1]; gauze, best single observation (one repetition, one time), read-out: % Repellency, At least One Time >50%): 100%
- pest or weed control at 5 % strength ([1]; observation period T1, gauze, read-out: % Repellency T1 (average of 3 repetitions)): 45%
- pest or weed control at 5 % strength ([1]; observation period T2, gauze, read-out: % Repellency T2 (average of 3 repetitions)): 45%
- pest or weed control at 5 % strength ([1]; observation period T3, gauze, read-out: % Repellency T3 (average of 3 repetitions)): -67%

SMILES: CCCC(=O)CCC [Compound 051, 4-heptanone]
- pest or weed control at 25 % strength [1, 4]: > 80%

SMILES: CCC(=O)/C=C/C(C)O (stereo not shown) [Compound 042, (E)-6-hydroxyhept-4-en-3-one]
- pest or weed control at 5 % strength [1, 5]: 76%

SMILES: CCC(=O)C(=O)OC [Compound 054, Methyl-2-oxobutanoate]
- pest or weed control at 1 % [1, 6]: > 80%

SMILES: CCC(C)C(=O)c1ccco1 (stereo not shown) [Compound 089, 1-furan-2-yl-2-methylbutan-1-one]
- pest or weed control at 5 % strength [1, 5]: > 80%

SMILES: CC(=O)/C=C/C=O [Compound 001, 4-oxo-2-pentenal]
- pest or weed control at 5 % strength [1, 5]: 57%

SMILES: CC(O)c1ccco1 (stereo not shown) [Compound 069, 1-(furan-2-yl)ethanol]
- pest or weed control at 25 % strength [1, 4]: > 80%

SMILES: CCCC(=O)/C=C/CO [Compound 046, (E)-1-hydroxyhept-2-en-4-one]
- pest or weed control at 5 % strength [1, 5]: 65%

SMILES: C=CCOC(=O)CC [Compound 017, allyl propionate]
- pest or weed control at 1 % [1, 6]: 4%
- pest or weed control at 1 % [1, 7]: 90%
- pest or weed control at 1 % [1, 8]: -20%
- pest or weed control at 1 % [1, 9]: 13%
- pest or weed control at 1 % [1, 10]: 18%

SMILES: CCC(=O)/C=C/C(=O)O [Compound 070, (E)-4-oxohex-2-enoic acid]
- pest or weed control at 1 % ([1]; gauze, 10 uL, 1% v/v in hexane:methanol (1:1), average of 3 replicates x 3 observation periods, read-out: % Repellency (% R), Overall Average): 74%

SMILES: CCC(=O)N(C)CC(OC)OC [Compound 049, N-(2,2-dimethoxyethyl)-N-methylpropionamide]
- pest or weed control at 1 % [1, 6]: 78%

SMILES: CCC(=O)COC=O [Compound 010, 2-oxobutyl formate]
- pest or weed control at 25 % strength [1, 4]: 45%
- pest or weed control at 25 % strength ([1]; observation period T1, beads, 20 uL, 25% w/w in hexane, read-out: % Repellency T1 (average of 3 repetitions)): 85%
- pest or weed control at 25 % strength ([1]; observation period T2, beads, 20 uL, 25% w/w in hexane, read-out: % Repellency T2 (average of 3 repetitions)): 42%
- pest or weed control at 25 % strength ([1]; observation period T3, beads, 20 uL, 25% w/w in hexane, read-out: % Repellency T3 (average of 3 repetitions)): 8%
- % Repellency, At least One Average >50% ([1]; beads, 20 uL, 25% w/w in hexane): 85%

SMILES: CC(=O)c1ccco1 [Compound 080, 2-Furyl methyl ketone]
- pest or weed control at 5 % strength [1, 5]: > 80%

SMILES: CCC(=O)/C=C/CO [Compound 006, (E)-6-hydroxyhex-4-en-3-one]
- pest or weed control at 1 % [1, 6]: -49%
- pest or weed control at 1 % [1, 7]: 57%
- pest or weed control at 1 % [1, 8]: -62%
- pest or weed control at 1 % [1, 9]: -74%
- pest or weed control at 1 % [1, 10]: -11%

SMILES: CCOC(=O)/C=C/C(=O)CC [Compound 068, (E)-ethyl 4-oxohex-2-enoate]
- pest or weed control at 1 % [1, 6]: 43%
- pest or weed control at 1 % [1, 8]: 30%
- pest or weed control at 1 % [1, 9]: 32%
- pest or weed control at 1 % [1, 10]: 65%
- % Repellency, At least One Average >50% ([1]; gauze, 10 uL, 1% v/v in hexane): 65%

SMILES: CC(C)C(=O)c1ccco1 [Compound 082, 1-(2-furyl)-2-methyl-propan-1-one]
- pest or weed control at 25 % strength [1, 4]: > 80%

SMILES: CCOC(=O)CCC(C)=O [Compound 076, ethyl levulinate]
- pest or weed control at 5 % strength [1, 5]: 69%

SMILES: CCC(=O)c1ccco1 [Compound 014, 1-(furan-2-yl)propan-1-one]
- pest or weed control at 25 % strength [1, 4]: > 80%
- % R (Overall Average) [1]: 71%
